Results: ChEMBL document CHEMBL1201862, “PubChem BioAssay data set” (2004)
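Interpolation was linear, between the two tested concentrations surrounding the appropriate level; five concentrations were tested over 48 hours in 96-well plates. GI50: concentration for 50% inhibition of growth.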 Calls of active or inactive are those of the source. Cut-off read from the data, not from the text of the source: active = GI50 up to about 1.1 µM and inactive = higher.

Assays:
Test in all cases: DTP human tumour cell line panel, 48 h
BT-549 = system: BT-549
T47D = system: T47D
KM-20L2 = system: KM-20L2
LXFL 529 = system: LXFL 529
M19-MEL = system: M19-MEL
SNB-78 = system: SNB-78
XF498 = system: XF498
HOP-18 = system: HOP-18
RXF 631 = system: RXF 631

**Q.** Which results are given for `NC(=S)NS(=O)(=O)c1ccc(F)cc1F`?
**A.** GI50 (BT-549): > 100 µM (inactive); GI50 (T47D): > 100 µM (inactive)

**Q.** For `O=C1c2ccccc2-c2oc(=O)c3ccccc3c21`, which GI50 (T47D) is on record?
**A.** > 100 µM (inactive)

**Q.** `Cc1ccc(C(=O)N/N=C(\N=N\c2ccccc2)c2ccc(N(C)C)cc2)cc1` was tested. Which GI50 (BT-549) did it give?
**A.** > 100 µM (inactive)

**Q.** `O=C1C2C=CC(C2)C(c2ccc(O)cc2)N1O` (stereo not given) was tested. Which GI50 (KM-20L2) did it give?
**A.** > 100 µM (inactive)

**Q.** What about the GI50 (LXFL 529) of the same molecule?
**A.** > 100 µM (inactive)

**Q.** And the GI50 (M19-MEL)?
**A.** > 100 µM (inactive)

**Q.** And the GI50 (SNB-78)?
**A.** > 100 µM (inactive)

**Q.** And the GI50 (XF498)?
**A.** > 100 µM (inactive)

**Q.** How did the GI50 (BT-549) turn out when `CC(=O)Oc1ccc(/C=C/C(=O)NCCOC(=O)/C=C/c2ccc(OC(C)=O)c(OC(C)=O)c2)cc1OC(C)=O` was run?
**A.** 38.7 µM (inactive)

**Q.** And the GI50 (T47D)?
**A.** 20.4 µM (inactive)

**Q.** For `Clc1ccc(C2=CC(c3ccccc3)N3C(=N[C@H]4CCCC[C@@H]43)N2)cc1` (stereo not given in full), which GI50 (BT-549) is on record?
**A.** 9.12 µM (inactive)

**Q.** And the GI50 (T47D)?
**A.** 6.4 µM (inactive)

**Q.** `O=c1cc(C(F)(F)F)c2cc3c(cc2o1)NCCC3` was tested. Which GI50 (BT-549) did it give?
**A.** > 100 µM (inactive)

**Q.** What about the GI50 (T47D) of the same molecule?
**A.** 9.46 µM (inactive)

**Q.** For `CCC(=O)C(C(C)/C=C/CCSc1ccccc1)C(O)CCCCCC(=O)OC` (stereo not given), which GI50 (BT-549) is on record?
**A.** > 100 µM (inactive)

**Q.** With `C=C(C)C1CC/C(C)=C/CCC2(C)OC2CC/C(CO)=C\C1O` (stereo not given) as the molecule, how does the GI50 (T47D) read?
**A.** > 100 µM (inactive)

**Q.** How did the GI50 (BT-549) turn out when `CC(C)(CN)SCc1ccccc1` was run?
**A.** > 100 µM (inactive)

**Q.** What about the GI50 (T47D) of the same molecule?
**A.** > 100 µM (inactive)

**Q.** Which results are given for `O=C(c1no[n+]([O-])c1C(=O)c1csc2ccccc12)c1csc2ccccc12`?
**A.** GI50 (BT-549): 6.55 µM (inactive); GI50 (T47D): 5.96 µM (inactive)

**Q.** Which GI50 (BT-549) does the source give for `CC(=O)C1C(=O)C(=O)N(c2cccc([N+](=O)[O-])c2)C1=O` (stereo not given) here?
**A.** > 100 µM (inactive)

**Q.** For `O=c1c2cc(S(=O)(=O)Nc3ccccc3Cl)ccc2ncn1NS(=O)(=O)c1ccc(Br)cc1`, which GI50 (BT-549) is on record?
**A.** > 37.5 µM (inactive)

**Q.** For `COC(=O)C1=C(C(=O)NNc2ccccc2)N(c2cccnc2Cl)C(c2ccccc2)=CC1c1ccccc1` (stereo not given), which GI50 (BT-549) is on record?
**A.** 56.8 µM (inactive)

**Q.** What about the GI50 (T47D) of the same molecule?
**A.** 26.1 µM (inactive)

**Q.** How did the GI50 (BT-549) turn out when `O=C1Nc2nnc(S)n2NC12c1ccccc1-c1ccccc12` was run?
**A.** > 100 µM (inactive)

**Q.** For `O=C(CC(C(=O)c1cccs1)c1ccsc1)c1ccsc1` (stereo not given), which GI50 (BT-549) is on record?
**A.** 28.3 µM (inactive)

**Q.** And the GI50 (T47D)?
**A.** 30.6 µM (inactive)

**Q.** How did the GI50 (T47D) turn out when `CCOC(=O)C1Cc2ccc(C)cc2C1=O` (stereo not given) was run?
**A.** > 100 µM (inactive)

**Q.** What does the source list for `CCN/C(=N\Nc1ccc([N+](=O)[O-])cc1)P(=O)(OC(C)C)OC(C)C`?
**A.** GI50 (KM-20L2): > 100 µM (inactive); GI50 (LXFL 529): > 100 µM (inactive); GI50 (M19-MEL): > 100 µM (inactive); GI50 (SNB-78): > 100 µM (inactive); GI50 (XF498): 66.5 µM (inactive)

**Q.** Which GI50 (BT-549) does the source give for `COC(=O)CCC1(O)C=CC(=O)C=C1` here?
**A.** 58.5 µM (inactive)

**Q.** Which GI50 (BT-549) does the source give for `C[N+]1(CCC[N+]2(C)CC3C4C=CC(CC4)C3C2)CCOCC1` (stereo not given) here?
**A.** > 100 µM (inactive)

**Q.** And the GI50 (T47D)?
**A.** > 100 µM (inactive)

**Q.** How did the GI50 (BT-549) turn out when `CCOC(=O)NC(C(F)(F)F)(C(F)(F)F)P(=O)(OCC)OCC` was run?
**A.** 34 µM (inactive)

**Q.** And the GI50 (T47D)?
**A.** 42.1 µM (inactive)

**Q.** Which GI50 (HOP-18) does the source give for `COC(=O)C1Cc2c([nH]c3ccccc23)C(c2ccccc2O)N1` (stereo not given) here?
**A.** > 100 µM (inactive)

**Q.** And the GI50 (KM-20L2)?
**A.** 95.5 µM (inactive)

**Q.** What about the GI50 (LXFL 529) of the same molecule?
**A.** 62.7 µM (inactive)

**Q.** Which results are given for `O=C(/C=C1\Nc2ccccc2C(=O)N1c1ccc(Cl)cc1)c1ccncc1`?
**A.** GI50 (KM-20L2): > 100 µM (inactive); GI50 (LXFL 529): > 100 µM (inactive); GI50 (M19-MEL): > 100 µM (inactive); GI50 (SNB-78): > 100 µM (inactive); GI50 (XF498): 30.1 µM (inactive)

**Q.** For `COc1ccc2c(c1)-c1nc(=S)n(CCCN(C)C)c3ccc([N+](=O)[O-])c(c13)N2`, which GI50 (BT-549) is on record?
**A.** 7.21 µM (inactive)

**Q.** And the GI50 (T47D)?
**A.** 18.7 µM (inactive)

**Q.** What does the source list for `CCN(CC)CCCNc1nncc2cc3c([nH]c4ccc(OC)cc43)c(C)c12`?
**A.** GI50 (BT-549): 16.3 µM (inactive); GI50 (T47D): 11.8 µM (inactive)

**Q.** `CC(C)(C)c1cc(C(=O)O)c2c(c1)C(=O)OC2(c1ccccc1)c1ccccc1C(=O)O` (stereo not given) was tested. Which GI50 (HOP-18) did it give?
**A.** > 100 µM (inactive)

**Q.** What about the GI50 (KM-20L2) of the same molecule?
**A.** > 100 µM (inactive)

**Q.** And the GI50 (LXFL 529)?
**A.** > 100 µM (inactive)

**Q.** What about the GI50 (M19-MEL) of the same molecule?
**A.** > 100 µM (inactive)

**Q.** And the GI50 (XF498)?
**A.** > 100 µM (inactive)

**Q.** What does the source list for `O=C(O)c1ccc(OCc2nc3cc(C(F)(F)F)ccc3nc2-c2ccccc2)cc1`?
**A.** GI50 (BT-549): 75.3 µM (inactive); GI50 (T47D): 50.7 µM (inactive)

**Q.** For `N#CC(C#N)=Cc1ccc2c(c1)OC(Cl)O2` (stereo not given), which GI50 (T47D) is on record?
**A.** 32.4 µM (inactive)

**Q.** Which results are given for `C=CCc1ccccc1CC1(OCC)OC(=O)c2ccccc21` (stereo not given)?
**A.** GI50 (BT-549): 96.8 µM (inactive); GI50 (T47D): 76.9 µM (inactive)

**Q.** What does the source list for `Cc1cn(S(=O)(=O)c2ccccc2)c2c(OCc3ccccc3)cc(NS(C)(=O)=O)cc12`?
**A.** GI50 (BT-549): 27.6 µM (inactive); GI50 (T47D): 4.72 µM (inactive)

**Q.** Which GI50 (BT-549) does the source give for `CC1(C)C2CCC1(C)C(N/C(=C(/C(Cl)=C(Cl)Cl)[N+](=O)[O-])n1nnc3ccccc31)C2` (stereo not given) here?
**A.** 22.2 µM (inactive)

**Q.** What about the GI50 (T47D) of the same molecule?
**A.** 32.7 µM (inactive)

**Q.** Which GI50 (BT-549) does the source give for `Cn1c(O)c(C(=O)Nc2ccc([N+](=O)[O-])cc2)c(=O)n(C)c1=S` here?
**A.** 1.17 µM (inactive)

**Q.** What about the GI50 (HOP-18) of the same molecule?
**A.** 2.84 µM (inactive)

**Q.** What about the GI50 (KM-20L2) of the same molecule?
**A.** 4.21 µM (inactive)

**Q.** And the GI50 (LXFL 529)?
**A.** 3.3 µM (inactive)

**Q.** What about the GI50 (M19-MEL) of the same molecule?
**A.** 3.69 µM (inactive)

**Q.** And the GI50 (SNB-78)?
**A.** 2.18 µM (inactive)

**Q.** With `CN1Cc2ccccc2/C=C\c2ccccc21` as the molecule, how does the GI50 (BT-549) read?
**A.** 70 µM (inactive)

**Q.** What about the GI50 (T47D) of the same molecule?
**A.** 50.5 µM (inactive)

**Q.** For `Cc1nc(=O)[nH]c2s/c(=N/C3CCCCC3)n(C3CCCCC3)c(=O)c12`, which GI50 (T47D) is on record?
**A.** > 100 µM (inactive)

**Q.** With `CN(C)c1ccc(C2CC(c3ccc4ccccc4c3O)=NN2c2ccc([N+](=O)[O-])cc2[N+](=O)[O-])cc1` (stereo not given) as the molecule, how does the GI50 (BT-549) read?
**A.** 91 µM (inactive)

**Q.** What about the GI50 (T47D) of the same molecule?
**A.** 68.1 µM (inactive)

**Q.** For `Cn1cnc([N+](=O)[O-])c1Sc1nc2ccccc2s1`, which GI50 (HOP-18) is on record?
**A.** 0.286 µM (active)

**Q.** And the GI50 (KM-20L2)?
**A.** 10.4 µM (inactive)

**Q.** What about the GI50 (LXFL 529) of the same molecule?
**A.** 10.5 µM (inactive)

**Q.** What about the GI50 (M19-MEL) of the same molecule?
**A.** 11.5 µM (inactive)

**Q.** And the GI50 (RXF 631)?
**A.** 4.84 µM (inactive)

**Q.** What about the GI50 (SNB-78) of the same molecule?
**A.** 12.7 µM (inactive)

**Q.** Which GI50 (BT-549) does the source give for `CN1C(=O)CC2CCC(=O)N2c2cccnc21` (stereo not given) here?
**A.** > 100 µM (inactive)

**Q.** What about the GI50 (T47D) of the same molecule?
**A.** > 100 µM (inactive)

**Q.** How did the GI50 (BT-549) turn out when `O=P(O)(O)C(NCC(O)CN1CCOCC1)P(=O)(O)O` (stereo not given) was run?
**A.** > 100 µM (inactive)
